The values below are quoted from earlier work in US12357667B2, “Nutraceutical formulations to prevent, treat, and inhibit excess cytokines, SARS-CoV-2 spike proteins, and mRNA vaccine spike proteins” (priority 2021, dated 2025).

Where a name gives a salt, the structure may show the parent alone.

Series [1] relates to SARS-CoV-2.
For series [2], the system named is SARS-CoV-2. To be noted: structure-based molecular docking.
The subject of series [3] is SARS-CoV-2. To be noted: lung epithelial cells.
For series [4] the following is noted: 6 mg/day for 4 weeks, active young men.
For series [5] the following is noted: hyperlipidemic rats.
Series [6] has as its system mouse hepatitis virus (MHV). Particulars: A549-MHVR cells, non-toxic conditions; read-out: EC50, suppression of MHV replication.
Series [7] relates to SARS-CoV-2. This is another data set of the same source.
For series [8], the system named is SARS-CoV-2. To be noted: patients previously taking CBD relative to matched pairs or the general population.
For series [9], the target named is cannabinoid G-protein coupled receptor CB2 (Homo sapiens, UniProt P34972).
In the next series the target is CB1 (Homo sapiens, UniProt P21554).
Another series has as its target RBD and ACE2 (Severe acute respiratory syndrome coronavirus 2, UniProt P0DTC2).
For a further series, the system named is pseudotyped SARS-CoV-2. Particulars: VeroE6/TMPRSS2 cells.
In series [10] the test system is human influenza viruses (H5N1, Vietnam/VN1203 strain).
The subject of the next series is influenza. To be noted: 6-month preventive administration.
Series [11] concerns the target T1, 3-chymotrypsin-like protease (3CLpro) (Severe acute respiratory syndrome coronavirus 2, UniProt P0DTD1).
T1 construct: 3-chymotrypsin-like protease (3CLpro)

The target of series [12] is T2, papain-like protease (PLpro) (Severe acute respiratory syndrome coronavirus 2, UniProt P0DTD1).
T2 construct: papain-like protease (PLpro)

For a further series, the target named is SARS-CoV-2 viral S-spike (Severe acute respiratory syndrome coronavirus 2, UniProt P0DTC2). Particulars: supercomputer modeling; out of 20 top performers.
Assay in series [13]: not given
This is another data set of the same source.

For series [14], the system named is multiple strains of SARS-CoV-2, including Delta and Omicron.
The subject of series [15] is respiratory syncytial virus. Particulars: respiratory syncytial virus-infected mice.
The test system of the next series is blood coagulation. Particulars: in vitro coagulation assays.
Series [16] relates to pseudovirus expressing the SARS-CoV-2 spike protein.
The next series has as its target Furin (Homo sapiens, UniProt P09958).
The target in another series is T3, main proteases (6Y2E) (Severe acute respiratory syndrome coronavirus 2, UniProt P0DTD1).
T3 construct: main proteases (6LU7 and 6Y2E)
To be noted: 6Y2E active sites.

In series [17] the test system is glutamate-cysteine ligase. Details: dose or concentration left out as unconfirmed. To be noted: zinc, ARPE-19 cells.
The subject of series [18] is SARS-CoV-2. The source holds these as a separate data set.

Sequence of CB1 (P21554 whole entry, species assumed): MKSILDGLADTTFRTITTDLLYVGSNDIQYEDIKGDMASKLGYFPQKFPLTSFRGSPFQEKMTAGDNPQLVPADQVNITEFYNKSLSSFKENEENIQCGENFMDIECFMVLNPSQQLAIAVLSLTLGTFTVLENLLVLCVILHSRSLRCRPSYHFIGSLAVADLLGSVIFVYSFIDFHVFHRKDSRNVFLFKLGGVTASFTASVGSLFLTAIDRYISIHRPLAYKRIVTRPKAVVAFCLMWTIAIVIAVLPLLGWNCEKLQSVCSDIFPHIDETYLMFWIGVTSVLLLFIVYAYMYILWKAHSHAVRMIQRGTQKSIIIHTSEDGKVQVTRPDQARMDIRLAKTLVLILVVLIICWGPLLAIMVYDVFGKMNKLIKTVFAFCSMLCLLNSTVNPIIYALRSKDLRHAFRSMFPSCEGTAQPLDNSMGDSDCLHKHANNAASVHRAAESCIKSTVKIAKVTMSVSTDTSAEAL
Sequence of Furin (P09958 108-794, species assumed): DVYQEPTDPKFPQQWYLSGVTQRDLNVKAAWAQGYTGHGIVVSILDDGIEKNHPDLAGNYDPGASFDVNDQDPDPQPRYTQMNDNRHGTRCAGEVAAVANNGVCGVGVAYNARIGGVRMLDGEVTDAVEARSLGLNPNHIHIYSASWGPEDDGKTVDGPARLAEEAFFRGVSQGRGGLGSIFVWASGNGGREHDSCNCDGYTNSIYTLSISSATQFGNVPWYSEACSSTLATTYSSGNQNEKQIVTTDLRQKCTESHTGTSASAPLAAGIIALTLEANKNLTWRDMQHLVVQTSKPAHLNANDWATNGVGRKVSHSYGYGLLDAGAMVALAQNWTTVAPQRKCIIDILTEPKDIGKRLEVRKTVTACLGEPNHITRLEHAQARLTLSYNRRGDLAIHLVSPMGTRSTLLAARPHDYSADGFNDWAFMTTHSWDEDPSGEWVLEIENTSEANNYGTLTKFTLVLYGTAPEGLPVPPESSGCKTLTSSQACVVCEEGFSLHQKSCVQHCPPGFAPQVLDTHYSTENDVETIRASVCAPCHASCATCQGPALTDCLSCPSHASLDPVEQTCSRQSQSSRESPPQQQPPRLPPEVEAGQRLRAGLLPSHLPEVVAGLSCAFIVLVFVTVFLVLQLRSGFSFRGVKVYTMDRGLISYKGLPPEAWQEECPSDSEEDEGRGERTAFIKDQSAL
Sequence of cannabinoid G-protein coupled receptor CB2 (P34972 whole entry): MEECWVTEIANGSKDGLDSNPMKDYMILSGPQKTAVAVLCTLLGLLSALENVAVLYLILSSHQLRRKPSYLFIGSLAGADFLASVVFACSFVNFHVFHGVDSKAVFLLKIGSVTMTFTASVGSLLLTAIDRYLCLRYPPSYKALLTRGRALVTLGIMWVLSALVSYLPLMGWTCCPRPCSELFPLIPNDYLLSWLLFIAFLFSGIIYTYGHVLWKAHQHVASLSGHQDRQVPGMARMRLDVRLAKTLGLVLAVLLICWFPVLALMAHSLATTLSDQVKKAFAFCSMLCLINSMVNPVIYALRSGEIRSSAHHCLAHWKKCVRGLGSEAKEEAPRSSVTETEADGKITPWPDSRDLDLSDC

Consider `C=C(CC(=O)OCCCCCCCC)C(=O)O` [4-octyl-itaconate], for which, in the series on SARS-CoV-2 [1], the “replication of SARS-CoV-2 in vitro” value was “inhibited replication”.
Regarding `CN1c2c(nc(N)[nH]c2=O)NCC1CNc1ccc(C(=O)N[C@@H](CCC(=O)O)C(=O)O)cc1` (stereo partly shown) [5-methyl tetrahydrofolic acid], the “binding affinities against the SARS-CoV-2” value (“binding affinities” for short) in the series with SARS-CoV-2 [2] was “strong and stable binding affinities”.
As to `C=C(C)[C@@H]1CCC(CO)=C[C@H]1c1c(O)cc(CCCCC)cc1O` [7-0H-CBD, 7-OH-CBD], in the series with SARS-CoV-2 [3], the “block of SARS-CoV-2 replication” value was “potently block”.
As for `CC1=C(/C=C/C(C)=C/C=C/C(C)=C/C=C/C=C(C)/C=C/C=C(C)/C=C/C2=C(C)C(=O)[C@@H](O)CC2(C)C)C(C)(C)C[C@H](O)C1=O` [Astaxanthin], in series [4], the “Glutathione higher compared with placebo” value was around 7% and the “oxidative stress markers or substrate utilization during exercise” value is recorded as “did not affect”. The “Glutathione, whole blood” value in series [4] (fasting blood sample) is reported as 1,233±133 μM. In series [5], the “coagulation, fibrinolytic activity and platelet aggregation” value is “inhibit coagulation, increase fibrinolytic activity and reduce platelet aggregation”.
For orientation: EC50 means the concentration giving half of the maximal effect. On to `C=C(C)[C@@H]1CCC(C)=C[C@H]1c1c(O)cc(CCCCC)cc1O` [CBD, Cannabidiol], for which the “block of SARS-CoV-2 replication” value in the series on SARS-CoV-2 [3] is given as “potently block”. For the same compound, the EC50 in [6] was around 5 µM. The “inhibition of SARS-CoV-2 replication” value in the series with SARS-CoV-2 [7] (Vero E6 monkey kidney epithelial cells) is listed as “inhibited SARS-CoV-2 replication”. In the series on SARS-CoV-2 [7] (at the effective doses), the toxicity entry is given as “No toxicity”. Moreover, the SARS-CoV-2 infection incidence entry in the series with SARS-CoV-2 [8] is listed as “significantly lower”. Further, the “IL-1β, IL-6, TNF and IL-18” value in the series on Caco-2 cells (ELISA, CBD 10-9-10-7 M) is given as “parallel inhibition”. Moreover, in the series on Caco-2 cells (following CBD treatment), the “transepithelial electrical resistance (TEER)” value is recorded as “restoration”. The “proinflammatory markers triggered by Spike Protein (TLR-4, ACE-2, RhoA-GTPase, NLRP3, Caspase-1)” value in the series on Caco-2 cells (immunoblot, CBD 10-9-10-7 M) is reported as “reduce all the analyzed proinflammatory markers”.
On to `C=C(C)[C@@H]1CCC(C)=C[C@H]1c1c(O)cc(CCC)cc1O` [CBDV, cannabidivarin, reference compound], for which, in the series with astrocytes, the “levels of interleukin-6 (IL-6) and lactate dehydrogenase (LDH)” value was “attenuated levels”.
For `CCCCCc1cc(O)c(C/C=C(\C)CCC=C(C)C)c(O)c1` [CBG, Cannabigerol], in the series on astrocytes, the “levels of DNA damage proteins” value is “decreased levels”; the “levels of interleukin-6 (IL-6) and lactate dehydrogenase (LDH)” value is “attenuated levels”.
For `CCCCCc1cc(O)c2c(c1)OC(C)(C)c1ccc(C)cc1-2` [Cannabinol], in series [9], the “binding to CB2” value is “preferentially binds”. Besides, the “affinity for CB1” value at CB1 was “minimal affinity”.
For the compound `CC(=O)N[C@@H](CS)C(=O)O` [N-acetylcysteine, reference compound], the “in vitro binding of RBD and ACE2” value on RBD and ACE2 is on record as “inhibited”. Further, the spike-mediated cell-cell fusion result with SARS-CoV-2 spike was “inhibited”. Further, the pseudotyped viral infection result in the series on pseudotyped SARS-CoV-2 is “inhibited”. In series [10], the “inhibition of H5N1 replication” value is “dose dependent manner”; the “production of pro-inflammatory cytokines (IL-8, CXCL10, CCL5 and IL-6)” value is “reduced the production”. Also, the “incidence of clinically apparent influenza and influenza-like episodes” value with influenza is recorded as “significantly reduced”.
Take `O=c1c(O)c(-c2ccc(O)c(O)c2)oc2cc(O)cc(O)c12` [Quercetin]: the solubility entry was “low solubility”. The docking binding energy in series [11] was -6.25 kcal/mol. In addition, the docking binding energy in series [12] is -4.62 kcal/mol. Besides, the “rank for inhibition of SARS-CoV-2 viral S-spike binding to cells” value at SARS-CoV-2 viral S-spike is “fifth”. Besides, the “oral absorption / systemic bioavailability” value in [13] is “reduced oral absorption”.
With `C[S+]([O-])CCCCN=C=S` (stereo not shown) [SFN, Sulforaphane], the antiviral activity entry was “potent antiviral activity” in the series with HCoV-OC43; “potent antiviral activity” in [14] (multiple strains of SARS-CoV-2, including Delta and Omicron). For the same compound, the “toxicity in cell culture” value in [14] is “limited toxicity”. Besides, the “lung viral replication and virus-induced inflammation” value in [15] is “significantly limited”.
`CC1=CC(=O)C(C(C)C)=CC1=O` [Thymoquinone]: the anticoagulant activity entry with blood coagulation is on record as “possesses anticoagulant activity”.
In the case of `C=C(C)[C@@H]1CCC(C)=C[C@H]1c1c(O)cc(CCCCC)c(C(=O)O)c1O` [cannabidiolic acid], the “infection of human epithelial cells by pseudovirus” value in [16] is recorded as “prevented infection”. Further, the “entry of live SARS-CoV-2 into cells” value with live SARS-CoV-2 was “prevented entry”.
Turning to `CCCCCc1cc(O)c(C/C=C(\C)CCC=C(C)C)c(O)c1C(=O)O` [cannabigerolic acid], the “infection of human epithelial cells by pseudovirus” value in series [16] was “prevented infection”. The “entry of live SARS-CoV-2 into cells” value with live SARS-CoV-2 is on record as “prevented entry”.
`COc1cc(/C=C/C(=O)CC(=O)/C=C/c2ccc(O)c(OC)c2)ccc1O` [curcumin, diferuloylmethane]: the “oral absorption / systemic bioavailability” value in series [13] is reported as “minimal absorption”.
Turning to `COC(=O)/C=C/C(=O)OC` [dimethyl fumarate], the “replication of SARS-CoV-2 in vitro” value in the series with SARS-CoV-2 [1] is listed as “inhibited replication”.
As for `Nc1nc2ncc(CNc3ccc(C(=O)N[C@@H](CCC(=O)O)C(=O)O)cc3)nc2c(=O)[nH]1` [folic acid], the “binding affinities” value in the series on SARS-CoV-2 [2] is “strong and stable binding affinities”. In addition, the furin inhibition result on Furin was “inhibit furin”.
`N[C@@H](CCC(=O)N[C@@H](CS)C(=O)NCC(=O)O)C(=O)O` [glutathione, γ-glutamyl cysteinyl glycine]: on RBD and ACE2, the “in vitro binding of RBD and ACE2” value was “inhibited”. In addition, the spike-mediated cell-cell fusion result in the series with SARS-CoV-2 spike was “inhibited”. The pseudotyped viral infection entry with pseudotyped SARS-CoV-2 was “inhibited”. Moreover, the “oral absorption / systemic bioavailability” value in series [13] was “poor”.
Consider `CC1(C)CC[C@]2(C(=O)O)CC[C@]3(C)C(=CC[C@@H]4[C@@]5(C)CC[C@H](O)[C@@](C)(CO)[C@@H]5CC[C@]43C)[C@@H]2C1` [hederagenin], for which, at main proteases (6Y2E), the “docking binding score with 6Y2E” value is reported as “less than saquinavir”.
As to `Cc1c(-c2cnccn2)ssc1=S` [oltipraz], the ACE2 levels result in the series with ACE2 was “reduces ACE2 levels”.
On to `Nc1nc2c(c(=O)[nH]1)NC(CNc1ccc(C(=O)N[C@@H](CCC(=O)O)C(=O)O)cc1)CN2` (stereo partly shown) [tetrahydrofolic acid], for which the “binding affinities” value with SARS-CoV-2 [2] was “strong and stable binding affinities”.
As to `[Zn]` [zinc], the “mRNA levels of glutamate-cysteine ligase” value in [17] was “upregulates”.
Take bromelain: in the series on SARS-CoV-2 [18], the “infection of VeroE6 cells by SARS-CoV-2” value is “inhibits infection”. Also, in the series on PGE-2, the toxicity entry is “very low toxicity”. Also, in the series on PGE-2 (compared with prednisone and aspirin), the “effect on PGE-2 inhibition” value was “exceeds that of prednisone and aspirin”.
